The values below come from publication PMC11775380, “Discovery of Novel Nav1.7-Selective Inhibitors with the 1H-Indole-3-Propionamide Scaffold for Effective Pain Relief” (Research, 2025).

Like-named read-outs stand apart in the source and are kept apart here.

For data set [1], the system named is native Na+ current (Nav channels) in DRG neurons. The data set can be described thus: Voltage-clamp recording of native Na+ current in DRG neurons. Type of data set: cell-based. The following applies: 10 μM; mouse DRG neurons. How it is done:
To investigate the mechanism of action of WN2-R and facilitate animal model experiments, we used voltage-clamp recording to test the effects of WN2-R on the native Na^+-, K^+-, and Ca^2+-mediated currents in DRG neurons. […] Furthermore, the effects of WN2-R on membrane excitability were examined in small (<30 μm) DRG neurons from mice using current-clamp recordings.
DRG isolation and culture were performed according to our previous report. Briefly, C57BL/6 mice (weight 18 to 20 g, 6 to 8 weeks) were euthanized via cervical dislocation under anesthesia. Lumbar DRGs were isolated from the L4 to L5 segments of the lumbar spinal cord. The DRG neurons were subsequently dissociated through enzymatic digestion with collagenase (0.32 mg/ml) and trypsin (0.15 mg/ml) at 37 °C for 30 min, with intermittent shaking. After centrifugation at 800 rpm for 5 min at room temperature, the cells were seeded onto poly-L-lysine-coated coverslips and cultured in DMEM (Gibco) supplemented with 10% fetal bovine serum (Gibco). […]
For recording Nav currents of DRG neurons, the bath solution contains (in mM) 30 NaCl, 1 MgCl2, 1.8 CaCl2, 5 CsCl, 5 KCl, 25 D-glucose, 5 HEPES, 0.1 CdCl2, and TEA-Cl (pH 7.4 with NaOH), and the pipette solution contains (in mM) 135 CsCl, 10 NaCl, and 5 HEPES (pH 7.4 with CsOH). The Nav current program is recorded following the above method. […]

The nature of data set [2]: Pharmacokinetic study in mice (p.o. and i.v.), LC-MS/MS of plasma. Type of data set: in vivo, ICR mice. The following applies: for MRT last: read-out: MRT(0-t); for MRT inf: read-out: MRT(0-∞). How it is done:
To evaluate the pharmaceutical properties of WN2-R, a preliminary pharmacokinetic study was conducted in mice to examine the in vivo pharmacokinetic profile following both oral (p.o.) and intravenous (i.v.) administrations, along with the determination of bioavailability (Table 2). Under p.o. conditions, WN2-R was rapidly absorbed, with drug detection occurring within 5 min. […] Similar to the p.o. study, the plasma concentration decreased gradually over time, approaching the quantitation limit at 6 to 8 h post-dosing (Fig. 7C).
The pharmacokinetic and bioavailability of WN2-R were examined in ICR mice following both p.o. and i.v. administrations. All animal experiment procedures were carried out in accordance with the animal experiment procedures promulgated by the State Science and Technology Commission of China and Animal Care and Use Committee of Institute of Materia Medica, Chinese Academy of Medical Sciences (registry no. 00008517). Male ICR mice (n = 12), weighing 20 ± 2 g, were obtained from Beijing Vital River Experimental Animal Co., Ltd. (Beijing, China). Before the experiment, the mice were kept under standard conditions, including a 12-h light/dark cycle, adequate ventilation, a temperature of 25 ± 2 °C, and 60% relative humidity. WN2-R, suspended in physiological saline, was orally administrated to mice at 10 mg/kg after an overnight fast. In addition, the mice were injected via caudal vein with WN2-R dissolved in 20% HP-β-CD at 1 mg/kg. Blood samples were collected from the retro-orbital venous plexus to ice-cooled EP tube containing 0.5% heparin sodium at 0.033 (i.v. only), 0.083, 0.25, 0.5, 1, 2, 4, 6, 8, 12, and 24 h after dosing. Plasma was obtained by centrifugation of blood at 8,000 rpm for 5 min. Subsequently, 20 μl of plasma sample was mixed with 140 μl of acetonitrile, vortexed for 30 s, and centrifuged twice at 14,000 rpm for 5 min. The resulting supernatant (2 μl) was analyzed by the liquid chromatography–tandem mass spectrometry (LC-MS/MS) method.
The LC-MS/MS system consisted of Thermo TSQ Access Max mass and Vanquish liquid chromatograph (Thermo Scientific, USA). Zorbax-SB C18 column (2.1 × 100 mm, 3.5 μm Agilent USA) was used in the analysis. The mobile phase consisted of water containing 0.1% formic acid (Phase A) and acetonitrile (Phase B) at a flow rate of 0.25 ml/min with an operation temperature of 35 °C. A gradient elution system was used as follows: 40% B at 0 to 1 min, 90% B at 1 to 4 min, 90% B down to 40% B at 4 to 5 min, and 40% B at 5 to 7 min. The automatic sampler was maintained at 15 °C throughout the analysis. For the mass spectrometry analysis, positive ion scanning in selected reaction monitor mode was applied to monitor the transition of m/z 458.2 to 191.9 for the determination of WN2-R. Besides, other instrument parameters, including ion spray voltage, capillary temperature, sheath gas, auxiliary gas, and collision energy, were optimized to enhance the analysis of WN2-R.
EXCEL and PRISM8.0 were used for data and chart preparation. The Winnolin professional software was employed for the pharmacokinetic parameter calculation. Bioavailability was calculated using the following formula: F (%) = (Di.v. × AUCp.o.)/(Dp.o. × AUCi.v.) × 100%.

The mark [3] stands for this setting: male, ICR, mouse, plasma, iv, i.v. (1 mg/kg).
Setting [4] is: male, ICR, mouse, plasma, po, p.o. (10 mg/kg).

Broadly, the Cmax is the highest concentration seen after dosing. Usually AUC(0-inf) stands for the area under the concentration-time curve extrapolated to infinity. Low values mean less exposure, high ones more exposure. What is called AUC(0-t) is exposure summed from dosing to a finite time, without extrapolation to infinity. As usually defined, the Tmax is the time at which the peak concentration occurs. In general, half-life refers to the time needed for the level to fall by half in the phase considered. A higher half-life goes with slow loss. Usually bioavailability stands for dose-corrected exposure relative to a reference, in per cent. As for `Cc1ccc(Cn2cc([C@H](CC(=O)NCCN(C)C)c3ccc(F)cc3)c3ccccc32)cc1` [WN2-R], the “Effect on native Na+ current” value in data set [1] is “completely inhibited”. Further, in data set [2] (i.v. (1 mg/kg)), the “Time at which Cmax was detected” value is 2 min and the V is recorded as 23,580.98 ± 2,679.45 ml/kg. In data set [2] (male, ICR, mouse, iv, i.v. (1 mg/kg), plasma), the highest level (Cmax) was 269 ± 11.9 ng/mL. In data set [2] (setting [3]), the AUC(0-inf) was determined as 271 ± 30.8 ng·h/mL, the AUC(0-t) turned out to be 267 ± 29.7 ng·h/mL, the time to peak (Tmax) came to 0.033 h and the clearance was 62 mL/min/kg. Moreover, in data set [2] (setting [3]), the half-life was 4.47 ± 0.96 h, the MRT last came to 3.21 ± 0.28 h and the MRT inf was 3.56 ± 0.44 h. Also, in data set [2] (male, ICR, mouse, plasma, oral, p.o. 10 mg/kg vs i.v. 1 mg/kg, from AUC(0-t), read-out: F (bioavailability)), the bioavailability stood at 20.3%. Further, in data set [2] (setting [4]), the total exposure AUC(0-inf) is 546 ± 98.1 ng·h/mL, the AUC(0-t) stood at 542 ± 98.5 ng·h/mL, the time to peak (Tmax) was 0.25 h and the half-life was 3.46 ± 0.5 h. Moreover, in data set [2] (setting [4]), the MRT last turned out to be 5.66 ± 0.33 h and the MRT inf was 5.87 ± 0.4 h. In data set [2] (male, ICR, mouse, po, p.o. (10 mg/kg), plasma), the Cmax worked out at 139 ± 25.4 ng/mL.
